Measurements from PubChem BioAssay (NCI).
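Following 48 hours of exposure in 96-well plates, responses at five concentrations were used to interpolate endpoints linearly. At the GI50, growth is halved. TGI: concentration producing complete growth inhibition.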

How the values were obtained:
Assay in all cases: inhibition of tumour cell growth, NCI panel, 48 h
OVCAR-3 ovarian = test system: OVCAR-3 ovarian
NCI-H23 lung = test system: NCI-H23 lung
OVCAR-4 ovarian = test system: OVCAR-4 ovarian
NCI-H522 lung = test system: NCI-H522 lung
MDA-MB-435 = test system: MDA-MB-435
CAKI-1 renal = test system: CAKI-1 renal
HCT-15 colon = test system: HCT-15 colon
MOLT-4 leukemia = test system: MOLT-4 leukemia

| SMILES | GI50 (OVCAR-3 ovarian) [µM] | TGI (OVCAR-3 ovarian) [µM] | GI50 (NCI-H23 lung) [µM] | TGI (NCI-H23 lung) [µM] | GI50 (OVCAR-4 ovarian) [µM] | TGI (OVCAR-4 ovarian) [µM] | GI50 (NCI-H522 lung) [µM] | TGI (NCI-H522 lung) [µM] | GI50 (MDA-MB-435) [µM] | TGI (MDA-MB-435) [µM] | GI50 (CAKI-1 renal) [µM] | TGI (CAKI-1 renal) [µM] | GI50 (HCT-15 colon) [µM] | TGI (HCT-15 colon) [µM] | GI50 (MOLT-4 leukemia) [µM] | TGI (MOLT-4 leukemia) [µM] |
| --- | --- | --- | --- | --- | --- | --- | --- | --- | --- | --- | --- | --- | --- | --- | --- | --- |
| CCCCNC(=O)NS(=O)(=O)c1ccc(N2N=C(c3cc(C)ccc3C)CC2c2cc(OC)c(OC)c(OC)c2)cc1 (stereo unspecified) | 2.07 | 3.99 | 2.35 | 6.22 | 2.52 | 14.5 | 2.39 | 7.75 | 1.75 | 4.24 | 3.07 | 12.7 | 2.81 | 11.1 | 2.74 | 8.89 |
| Nc1cc(N)c2nc(-c3ccccc3)c(NCc3ccc(F)cc3)nc2c1 | 2.39 | 6.42 | 2.38 | 4.6 | 1.69 | 8.08 | > 100 | > 100 | 2.01 | 3.74 | 15.3 | 37.1 | 3.34 | 19.1 | > 100 | > 100 |
| C/C=C/[C@@H]1OC(=O)C2=C[C@@H](O)[C@@H](/C=C/C)O[C@H]21 | 2.45 | 13.1 | 3.08 | 23.3 | 6.96 | 27.8 | 1.93 | – | 10.4 | 25.5 | 1.71 | 3.81 | 2.82 | 17.2 | 1.73 | > 19.7 |
| CC(C)c1ccc(Nc2nccc(-c3cnn4ncccc34)n2)cc1 | 0.516 | > 6.26 | 0.483 | > 7 | 0.604 | 2.63 | 0.564 | 3.35 | 0.567 | 1.66 | 0.8 | > 15.4 | 0.614 | > 25 | 0.888 | 4.19 |
| CSc1ccccc1C#Cc1ccccc1C#CCCCCO | 14.7 | 28.7 | 15.7 | 33 | 17.7 | 37.3 | 14.2 | 29.4 | 3.9 | 15.2 | 7.13 | 20.5 | 3.85 | 15.9 | 7.32 | 29.3 |
| Cc1c(Cl)cccc1NC1=C(Cl)C(=O)N(Cc2ccccc2)C1=O | 1.47 | 15.2 | 10.8 | 22.7 | 15.5 | 34 | 17 | > 100 | 8.55 | 20.8 | 1.11 | 5.06 | 4.37 | 18 | 10.1 | 43 |
| CC12CC(OC(=O)[C@]1(C)O)[C@@H]([C@]1(O)CC[C@H]3[C@@H]4C[C@H]5O[C@]56[C@@H](O)C=CC(=O)[C@]6(C)[C@H]4CC[C@@]31C)C2 (stereo partly specified) | – | 7.72 | – | 14.4 | – | 24.4 | – | 2.92 | – | 29.4 | – | 24.9 | – | 25.3 | – | 10.1 |
| CCNCCNc1cc(C2CCCCC2)c(C#N)c2nc3ccccc3n12 | 1.7 | 3.29 | 2.06 | 5.54 | 2.1 | 6.42 | 2.05 | 4.4 | 1.73 | 3.4 | 1.82 | 3.91 | 1.69 | 3.46 | 2.04 | 4.97 |
| CCOC(=O)c1nc(Nc2ccc(Cl)cc2)c2ccccc2n1 | 6.11 | 13.2 | 10.7 | 18.9 | 11.3 | 47.9 | 10.5 | 25.8 | 6.85 | 13.3 | 7.73 | 16.3 | 14.9 | > 50 | – | – |
| O=C(N/N=C/c1cc([N+](=O)[O-])ccc1O)c1cccc2ccccc12 | 3.67 | > 100 | 4.68 | > 100 | 1.2 | 26.2 | 3.47 | 22 | 7.18 | > 100 | 1.31 | 4.67 | 2.55 | > 100 | 2.41 | 21.7 |
| Cc1ccc2c(c1)C(=O)c1c-2n(CCCBr)c(=O)c2cc([N+](=O)[O-])ccc12 | 71.1 | > 100 | – | – | > 100 | > 100 | 12.2 | 96.2 | > 100 | > 100 | 5.28 | 32.6 | 97.8 | > 100 | 26.6 | > 100 |
| Nc1n[nH]c2ccc([C@@H]3Nc4ccc5[nH]ncc5c4[C@H]4C5C=CC(C5)[C@@H]34)cc12 (stereo partly specified) | 0.291 | 4.23 | 0.446 | 14 | 1.76 | > 90.7 | 0.173 | 12.7 | 0.0794 | 0.444 | 0.23 | 21.6 | 0.316 | 13.5 | 0.433 | 40.7 |
| COC(=O)C(F)C(Br)C(=O)OC (stereo unspecified) | – | 4.33 | – | 13.5 | – | 19.8 | – | 3.94 | – | 27.3 | – | 5.17 | – | 3.84 | – | 3.01 |
| CCC(/C=C/c1ccccc1)=N\Nc1ccc(Cl)c(Cl)c1 | – | > 100 | – | > 100 | – | – | – | 46.1 | – | > 100 | – | > 100 | – | > 100 | – | > 100 |
| Cc1cn2c(/C=N/Nc3ccccn3)c(-c3ccc(Cl)c([N+](=O)[O-])c3)nc2s1 | 11 | 27.3 | 10.9 | 27.2 | – | – | 7.35 | 26.5 | 30.3 | > 50 | 39 | > 50 | 16 | > 50 | – | – |
| CCOc1ccccc1/C=N\N=C(\N)N/N=C/c1ccccc1OCC | 1.69 | 4.48 | 5.86 | > 100 | 3.68 | > 100 | – | – | – | – | 4.12 | > 100 | 1.46 | > 100 | 3.33 | > 100 |
| CC(C)C[C@H](NC(=O)[C@@H](O)[C@H](N)Cc1ccc([N+](=O)[O-])cc1)C(=O)O | 0.0025 | > 25 | > 25 | > 25 | > 25 | > 25 | > 25 | > 25 | > 25 | > 25 | > 25 | > 25 | > 25 | > 25 | – | – |
| CC1(C)CC[C@]2(C(=O)N3CCOCC3)CC[C@]3(C)C(=CC[C@@H]4[C@@]5(C)C/C(=C/c6ccncc6)C(=O)C(C)(C)[C@@H]5CC[C@]43C)[C@@H]2C1 | 2.06 | > 100 | 2.41 | > 100 | 2.34 | > 100 | 1.3 | 6.72 | – | – | 1.07 | > 100 | 0.939 | 11 | 0.787 | > 100 |
| CCCOc1nc(SCCC)nc2c1cnn2-c1ccccc1 | > 100 | > 100 | > 100 | > 100 | > 100 | > 100 | – | – | 53.1 | > 100 | 68.2 | > 100 | > 100 | > 100 | > 100 | > 100 |
| CCCCCCCOc1c(OC)cc(C2CC(=O)Nc3c2c(C)nn3-c2nc3ccccc3[nH]2)cc1OC (stereo unspecified) | – | – | 2.95 | 9.96 | – | – | 2.79 | 10.3 | 2.42 | 6.08 | 1.92 | 4.25 | 3.12 | > 100 | 2.8 | 7.72 |
| CCN(CC)c1ccc(C(=N)c2ccc(N(C)C)cc2)cc1 | 0.156 | 4.07 | 0.218 | 3.19 | 2.75 | > 39.5 | – | – | 0.0962 | 1.05 | 0.246 | 7.73 | 0.17 | 7.93 | 1.17 | 4.55 |
| COc1cc(C(=O)/C=C/c2cccnc2Nc2ccccc2)cc(OC)c1OC | 0.429 | 1.48 | 1.43 | 3 | 1.45 | 2.76 | 0.493 | 1.76 | 0.637 | 2.08 | – | – | 0.744 | 2.4 | 2.68 | 19.5 |
| COc1ccc2c(c1)C(C)Cc1c(Cl)nc(C)nc1N2C (stereo unspecified) | 1.4 | 4.17 | 3.48 | 37.2 | 4.94 | > 100 | 0.763 | 5.92 | – | – | 2.56 | > 100 | 1.33 | 8.05 | 5.01 | > 100 |
| CCN1C(=O)N(CC)C2C1NN=c1s/c(=C\c3cc4ccccc4[nH]3)c(=O)n12 (stereo unspecified) | – | – | 0.0445 | > 76.9 | < 0.0162 | > 100 | < 0.0164 | 1.02 | – | – | < 0.0169 | 11.6 | 0.0324 | > 100 | < 0.018 | > 100 |
